Experimental data: patent publication US9593146B2, “CD44v6-derived peptides for treating metastasizing cancer” (AMCURE GMBH, priority 2012, dated 2017)

Columns and labels:
ErbB receptors [1] = test: ErbB ligand induced Erk-kinase phosphorylation in HT29 cells; format: cell-based, human; settings: HT29, 100 ng/ml peptide 5 min, 20 ng/ml ligand
Description: FIG. 15: In contrast to EGF and ER, induction of the ErbB-receptors via TGF-α, BC, Her, HB-EGF or AR is completely independent of CD44v6. Serum-starved HT29 cells were pre-incubated for 5 min with 100 ng/ml of a CD44v6-specific peptide (human v6 14mer) or a control peptide. Afterwards the cells were induced with 20 ng/ml of various ErbB ligands as indicated. The cell lysates were resolved by SDS-PAGE. Western-blotting was used to detect ErbB ligands-induced Erk-kinase phopshorylation.
For this purpose HT29 cells were serum-starved for 24 hours and pre-treated with the v6-specific or a control peptide. They were then induced with the indicated ErbB ligands. Erk-kinase phosphorylation was used as a read-out for receptor activation. All ligands could activate the Erk-kinase. […] These ligands are independent of CD44v6 for their induction of the ErbB receptors. This is especially striking, since EGF and TGF-α address the same receptor pairs (ErbB1/1 or ErbB1/2).

Met and ERK = test: HGF induced activation of Met and ERK in L3.6pl cells (Western blot); format: cell-based, human; settings: L3.6pl cells, peptide prior to induction with 10 ng/ml HGF
Description: Serum-starved cells (24 hours) were induced with the growth factor HGF (10 ng/mL) at 37° C. for 5 minutes. Where indicated, the cells were treated with peptides (100 ng/ml) prior to induction at 37° C. for 10 minutes (100 ng/mL CD44v6 peptide or control peptide). Following the induction with HGF, cells were washed with ice-cold phosphate-buffered saline (PBS). To detect activated Met and Erk, cells were lysed in sodium dodecyl sulfate (SDS)-sample buffer containing 100 mM dithiothreitol (DTT), boiled and subjected to western blot analysis using antibodies against phospho-Met and ERK. The loading controls were performed on the same blot after stripping (62.5 mM Tris, pH 6.8, 2% SDS, 0.8% DTT) by probing with the Met respectively ERK antibody. Blots were stained using the enhanced chemiluminescence system (Thermo Fisher Scientific, Schwerte, Germany). Bands in western blot analysis were quantified with the program Image J (National Institutes of Health).

HUVEC = HUVEC spheroid sprouting assay; format: cell-based, human; settings: 100 ng/ml peptide, VEGFs 40 ng/ml, 48 h
Description: FIG. 19: Spheroids of HUVECs (750 cells) were generated in hanging drops. They were suspended in Endothelial Cell Growth Medium containing 1 mg/ml rat tail collagen I and 0.6% (wt/vol) methylcellulose and distributed in 48-well plates (30 spheroids/well). After solidification at 37° C. the mixture was overlaid with Endothelial Cell Growth Medium containing 100 ng/ml v6 peptide (human v6 14mer) or control peptide and VEGFs (40 ng/ml). Pictures were taken 48 h later and sprouting was quantified with the computer program ImageJ.
Clusters of HUVEC cells, so-called spheroids, were generated in hanging drops and embedded in a three-dimensional collagen matrix. They were overlaid with medium containing the blocking substances and the growth factors. Activated by the growth factors VEGF-A165 and VEGF-A121 the ECs started to grow out of the spheroids (FIG. 19). […] Sprouting of the ECs was quantified by analysing the total length of all sprouts originating from one spheroid.

L3.6pl cells = test: Regression of established metastases, L3.6pl orthotopic mouse model; format: in vivo, nude mice; settings: treatment started three weeks after implantation; human v6 peptide or rat control peptide 20 μg i.p.
Description: In order to examine the regression of metastases (either BSp73ASs6 or L3.6pl) were implanted as described above. Tumor growth was allowed for three weeks. At that time all animals had developed metastases in the control group. Animals were injected i.p. with 20 μg (L3.6pl orthotopic mouse model: human v6 peptide or rat control peptide) or i.v. with 200 μg (rat syngeneic model: rat v6 peptide or mouse control peptide) of peptides three times per week. Animals were killed 23 days after the start of the peptide treatment.
The specific binding of the CD44v6 peptides to specific areas of the lungs in the rat system and of the liver in the human model raises the question whether these peptides might have an effect on already established metastases. In the experiments described in FIGS. 2 and 4 the peptides were applied early after injection of the tumor cells and repressed completely the establishment of metastases. In order to measure the effect of the CD44v6 peptide on already established metastases, other experimental settings were used. […] At the end of the experiments metastases could be detected in all animals treated with the control peptide (Table 3, FIG. 6B for the BSp73ASs6 cells, Table 3, FIG. 6C for L3.6pl cells) whereas animals treated with the species-specific CD44v6 peptides were free of metastasis. […]

ErbB receptors [2] = test: EGF / TGFα induced Erk phosphorylation in MCF7; format: cell-based, human; settings: 100 ng/ml peptide

- Erk phosphorylation upon TGFα induction (ErbB receptors [2]; 20 ng/ml TGFα (FIG. 16)): not upon TGFα induction
Sequence: KEQWFGNRWHEGYR [human 14mer, human CD44v6 14mer peptide]
- AR, BC, HB-EGF and TGF-α-induced activation of the ErbB receptors (ErbB receptors [1]): could not be inhibited
- EGF- and ER-dependent Erk phosphorylation (ErbB receptors [1]): inhibited
- Phosphorylation of Met and ERK (Met and ERK): inhibited
- sprouting in response to VEGF-A (VEGF-A165, VEGF-A121) (HUVEC): blocked completely
- presence of already established (liver) metastases after treatment (L3.6pl cells): eliminate already established metastases
- Erk phosphorylation upon EGF treatment (ErbB receptors [2]; 20 ng/ml EGF (FIG. 16)): blocking of Erk phosphorylation upon EGF treatment
